In patent publication US20130337564A1, “Treatment of Pluripotent Cells” (Janssen Biotech, Inc., priority 2012, published 2013):
Where “and” joins values, the source holds several entries; their conditions need not be identical. Equal values may be shown once.

Tests used:
[1] = test system: cells expressing pluripotency markers derived from human embryonic stem cells; assay: MTS viability (toxicity) assay of cells expressing pluripotency markers; format: cell-based; parameters: Raw data (duplicate), first replicate / Average: unit not given here; conditions: for viability at 10 µM: Homo sapiens, Embryonic stem cell; for viability at 10 µM / % Control: viability of cells expressing pluripotency markers, relative to control; for Raw data (duplicate), first replicate / Raw data (duplicate), second replicate: MTS viability assay raw reading; for Raw data (duplicate), first replicate: replicate 1; for Raw data (duplicate), second replicate: replicate 2; for Average: average of duplicate MTS raw readings; for Average of raw data (duplicate), optical density at 490 nm / % Control (percentage viability of control): MTS on day 4; for % Control (percentage viability of control): relative to Activin A + Wnt3a positive control
Method in brief: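 Cells expressing pluripotency markers, derived from human embryonic stem cells, were plated at 20,000 cells per well in 96-well clear-bottom plates and cultured overnight. Test compounds were applied in assay medium on days 1 and 2, and compound-free medium on days 3 and 4. On day 4, MTS was added and optical density at 490 nm was read in duplicate.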

[2] = test system: Sox17 expression in human embryonic stem cells (H9 line); assay: High content screening assay: Sox17 protein expression (differentiation); format: cell-based
Method in brief: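 H9 hESCs on MATRIGEL treated days 1-2 with 10 μM compound in DMEM:F12, 0.5% FCS, 100 ng/ml activin A; days 3-4 with 2% FCS plus activin A without compound. Fixed cells immunostained for Sox17 or HNF-3beta with Draq5 nuclear counterstain. Cell number and staining intensity quantified by high-content imaging, 12 fields/well.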

SMILES | viability at 10 µM [1] | Raw data (duplicate), first replicate [1] | Raw data (duplicate), second replicate [1] | Average [1] | fold induction at 10 µM ([2]; Homo sapiens, Embryonic stem cell, 10 μM test compound with 100 ng/ml activin A on days 1-2, H9, total intensity by IN Cell Analyzer, strong and moderate hits, read-out: SOX17 Expression, Fold over Wnt 3a/AA control) | SOX-17 Expression Total Intensity [2] | Average of raw data (duplicate), optical density at 490 nm ([1]; cmpd conc 2.5 μM) | Average of raw data (duplicate), optical density at 490 nm ([1]; cmpd conc 5 μM) | Average of raw data (duplicate), optical density at 490 nm ([1]; cmpd conc 10 μM) | % Control (percentage viability of control) ([1]; cmpd conc 2.5 μM) | % Control (percentage viability of control) ([1]; cmpd conc 5 μM) | % Control (percentage viability of control) ([1]; cmpd conc 10 μM) | % Control [1]
O=C1NC(=O)C(c2cn(CCCO)c3ncccc23)=C1c1ccccc1C(F)(F)F [Compound 16, 3-[1-(3-Hydroxypropyl)-1H-pyrrolo[2,3-b]pyridin-3-yl]-4-[2-(trifluoromethyl)phenyl]-1H-pyrrole-2,5-dione] | 73.7% | 0.641 | 0.601 | 0.621 | 0.648 | – | – | – | – | – | – | – | –
O=C1NC(=O)C(c2cn(CCCO)c3ncccc23)=C1c1cccs1 [Compound 17, 3-[1-(3-Hydroxypropyl)-1H-pyrrolo[2,3-b]pyridin-3-yl]-4-thiophen-2-yl-1H-pyrrole-2,5-dione] | 99.1% | 0.803 | 0.782 | 0.792 | – | 14786632 | – | – | – | – | – | – | –
O=C1NC(=O)C(c2cn(CCCO)c3ncccc23)=C1c1cc(Cl)sc1Cl [Compound 18, 3-(2,5-Dichlorothiophen-3-yl)-4-[1-(3-hydroxypropyl)-1H-pyrrolo[2,3-b]pyridin-3-yl]-1H-pyrrole-2,5-dione] | 69.9% | 0.637 | 0.554 | 0.595 | – | 0 | – | – | – | – | – | – | –
COCCCn1cc(C2=C(c3ccccc3O)C(=O)NC2=O)c2cccnc21 [Compound 22, 3-(2-Hydroxyphenyl)-4-{1-[3-(methyloxy)propyl]-1H-pyrrolo[2,3-b]pyridin-3-yl}-1H-pyrrole-2,5-dione] | 108% | 0.900 | 0.877 | 0.888 | – | 2188847 | – | – | – | – | – | – | –
COc1ccccc1C1=C(c2cn(-c3ccc4ccccc4c3)c3ncccc23)C(=O)NC1=O [Compound 23, 3-[2-(Methyloxy)phenyl]-4-(1-naphthalen-2-yl-1H-pyrrolo[2,3-b]pyridin-3-yl)-1H-pyrrole-2,5-dione] | 102% | 0.882 | 0.748 | 0.815 | – | 7121122 | – | – | – | – | – | – | –
COc1ccccc1C1=C(c2cn(CCCNC(=O)OC(C)(C)C)c3ncccc23)C(=O)NC1=O [Compound 26, 1,1-Dimethylethyl [3-(3-{4-[2-(methyloxy)phenyl]-2,5-dioxo-2,5-dihydro-1H-pyrrol-3-yl}-1H-pyrrolo[2,3-b]pyridin-1-yl)propyl]carbamate] | 76.4% | 0.568 | 0.709 | 0.639 | – | 15714170 | – | – | – | – | – | – | –
COc1ccccc1C1=C(c2cn(CCCNC(C)=O)c3ncccc23)C(=O)NC1=O [Compound 27, N-[3-(3-{4-[2-(Methyloxy)phenyl]-2,5-dioxo-2,5-dihydro-1H-pyrrol-3-yl}-1H-pyrrolo[2,3-b]pyridin-1-yl)propyl]acetamide] | 7.2% | 0.160 | 0.186 | 0.173 | – | 125443 | – | – | – | – | – | – | –
O=C1NC(=O)C(c2nn(CCCO)c3ccccc23)=C1c1cn(-c2cccnc2)c2ccc(Cl)cc12 [Compound 52, 3-(5-Chloro-1-pyridin-3-yl-1H-indol-3-yl)-4-[1-(3-hydroxypropyl)-1H-indazol-3-yl]-1H-pyrrole-2,5-dione] | 110% | 0.911 | 0.884 | 0.898 | – | – | 0.7886 | 0.4156 | 0.1448 | – | – | – | –
CN(C)CCCn1c2c(c3ccccc31)C1=C(C(=O)NC1=O)N(c1cccc(Cl)c1)C2 [Compound 101, 4-(3-Chlorophenyl)-6-[3-(dimethylamino)propyl]-5,6-dihydropyrrolo[3′,4′:5,6]pyrido[3,4-b]indole-1,3(2H,4H)-dione] | 100% | 0.791 | 0.768 | 0.779 | – | – | 0.7987 | 0.7702 | 0.1390 | – | – | – | –
CCN1CCOCCOCCn2cc(c3ccccc32)C2=C(C(=O)NC2=O)c2cn(c3ccccc23)CC1 [Compound 103, 14-Ethyl-6,7,9,10,13,14,15,16-octahydro-12H,23H-5,26:17,22-di(metheno)dibenzo[k,q]pyrrolo[3,4-n][1,4,7,10,19]dioxatriacyclohenicosine-23,25(24H)-dione] | – | 0.141 | 0.162 | 0.151 | – | – | 0.4737 | 0.2618 | 0.1339 | 51.4% | 19.7% | 0.5% | 4.3%
O=C1NC(=O)C(c2cn(CCOCCOCCO)c3ccccc23)=C1c1cn(CCO)c2ccccc12 [Compound 110, 3-[1-(2-Hydroxyethyl)-1H-indol-3-yl]-4-{1-[2-({2-[(2-hydroxyethyl)oxy]ethyl}oxy)ethyl]-1H-indol-3-yl}-1H-pyrrole-2,5-dione] | 112% | 0.948 | 0.764 | 0.856 | – | – | 0.8272 | 0.7879 | 0.6747 | – | – | – | –
CN1CCN(C)CCn2cc(c3ccccc32)C2=C(C(=O)NC2=O)c2cn(c3ccccc23)CC1 [Compound 111, 8,11-Dimethyl-6,7,8,9,10,11,12,13-octahydro-20H-5,23:14,19-di(metheno)dibenzo[k,q]pyrrolo[3,4-n][1,4,7,10]tetraazacyclooctadecine-20,22(21H)-dione] | – | 0.821 | 0.841 | 0.831 | – | – | 0.8169 | 0.7718 | 0.6709 | 102.9% | 96.1% | 81.0% | 108.0%
CN1CCOCCOCCN(C)CCn2cc(c3ccccc32)C2=C(C(=O)NC2=O)c2cn(c3ccccc23)CC1 [Compound 112, 12,21-Dimethyl-11,12,13,14,16,17,20,21,22,23-decahydro-1H,10H,19H-9,4:24,29-di(metheno)dibenzo[k,q]pyrrolo[3,4-n][1,4,7,10,19,22]dioxatetraazacyclotetracosine-1,3(2H)-dione] | – | 0.981 | 1.056 | 1.018 | – | – | 0.8103 | 0.1283 | 0.1283 | 101.9% | – | – | 145.3%
O=C1NC(=O)C2=C1c1cn(c3ccccc13)CCOCCOCCN(Cc1cccs1)CCn1cc2c2ccccc21 [Compound 133, 14-(2-Thienylmethyl)-6,7,9,10,13,14,15,16-octahydro-12H,23H-5,26:17,22-di(metheno)dibenzo[k,q]pyrrolo[3,4-n][1,4,7,10,19]dioxatriazacyclohenicosine-23,25(24H)-dione] | – | 0.823 | 0.634 | 0.728 | – | – | 0.7939 | 0.6661 | 0.3010 | 92.8% | 75.0% | 24.1% | 98.1%
O=C1NC(=O)C2=C1c1cn(c3ccccc13)CCOCCOCCN(Cc1cccc3ccccc13)CCn1cc2c2ccccc21 [Compound 136, 14-(Naphthalen-1-ylmethyl)-6,7,9,10,13,14,15,16-octahydro-12H,23H-5,26:17,22-di(metheno)dibenzo[k,q]pyrrolo[3,4-n][1,4,7,10,19]dioxatriazacyclohenicosine-23,25(24H)-dione] | – | 0.699 and 0.697 | 0.679 and 0.695 | 0.689 and 0.696 | – | – | 0.8432 | 0.7935 | 0.8425 | 99.6% | 92.7% | 99.5% | 86.3% and 87.3%
